Reference: PubChem BioAssay AID330 (DTP/NCI, 2004)
“And” between values parts separate entries of the source, which are not always exact repeats. Equal entries are not always repeated. Toxic doses and inconclusive results are not listed. The calls were made as follows: active = survival T/C of 150% or more; inactive = T/C below 125% in these data.

System: P388 leukemia ip, CD2F1 mice, survival T/C
Assay: NCI In Vivo Anticancer Drug Screen. Data for tumor model P388 Leukemia (intraperitoneal) in CD2F1 (CDF1) mice
Details: endpoint: median survival time, higher = longer survival
How it was run: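 Mice carrying the transplanted tumor received test compound or vehicle. Survival was recorded in each group, and the value is the treated-group measurement divided by that of the vehicle-treated control group.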

[1] = dose: 25.0 mg/kg/injection, schedule: Q01DX009 (ip), vehicle: saline
[2] = dose: 50.0 mg/kg/injection, schedule: Q01DX009 (ip), vehicle: saline
[3] = dose: 100.0 mg/kg/injection, schedule: Q01DX009 (ip), vehicle: saline
[4] = dose: 50.0 mg/kg/injection, schedule: Q01DX005 (ip), vehicle: saline with Tween-80
[5] = dose: 100.0 mg/kg/injection, schedule: Q01DX005 (ip), vehicle: saline with Tween-80
[6] = dose: 200.0 mg/kg/injection, schedule: Q01DX005 (ip), vehicle: saline with Tween-80
[7] = dose: 50.0 mg/kg/injection, schedule: Q01DX009 (ip), vehicle: saline with Tween-80
[8] = dose: 12.5 mg/kg/injection, schedule: Q01DX009 (ip), vehicle: saline with Tween-80
[9] = dose: 25.0 mg/kg/injection, schedule: Q01DX009 (ip), vehicle: saline with Tween-80
[10] = dose: 100.0 mg/kg/injection, schedule: Q01DX009 (ip), vehicle: Klucel (hydroxypropylcellulose) (HPC)
[11] = dose: 50.0 mg/kg/injection, schedule: Q01DX005 (ip), vehicle: Klucel (hydroxypropylcellulose) (HPC)
[12] = dose: 100.0 mg/kg/injection, schedule: Q01DX005 (ip), vehicle: Klucel (hydroxypropylcellulose) (HPC)
[13] = dose: 200.0 mg/kg/injection, schedule: Q01DX005 (ip), vehicle: Klucel (hydroxypropylcellulose) (HPC)
[14] = dose: 50.0 mg/kg/injection, schedule: Q04DX003 (ip), vehicle: saline with Tween-80
[15] = dose: 100.0 mg/kg/injection, schedule: Q04DX003 (ip), vehicle: saline with Tween-80
[16] = dose: 200.0 mg/kg/injection, schedule: Q04DX003 (ip), vehicle: saline with Tween-80
[17] = dose: 60.0 mg/kg/injection, schedule: Q01DX005 (ip), vehicle: saline with Tween-80
[18] = dose: 120.0 mg/kg/injection, schedule: Q01DX005 (ip), vehicle: saline with Tween-80
[19] = dose: 240.0 mg/kg/injection, schedule: Q01DX005 (ip), vehicle: saline with Tween-80

Measured: T/C

COc1ccc(/C(C#N)=C/c2ccncc2)cc1OC
inactive: dose: 12.5 mg/kg/injection, schedule: Q01DX009 (ip), vehicle: saline 102 % of control | [1] 97 % of control | [2] 101 % of control | [3] 101 % of control

COc1ccc(C2=NCC2(Cl)Cl)cc1
inactive: dose: 12.5 mg/kg/injection, schedule: Q01DX009 (ip), vehicle: other 97 % of control | dose: 25.0 mg/kg/injection, schedule: Q01DX009 (ip), vehicle: other 95 % of control | dose: 50.0 mg/kg/injection, schedule: Q01DX009 (ip), vehicle: other 105 % of control | dose: 100.0 mg/kg/injection, schedule: Q01DX009 (ip), vehicle: other 96 % of control | dose: 200.0 mg/kg/injection, schedule: Q01DX009 (ip), vehicle: other 99 % of control

CC1C2CCN(C)C1Cc1ccc(O)cc12 (stereo not drawn)
inactive: [4] 94 % of control | [5] 92 % of control | [6] 100 % of control

C1=CCC2COCC2C1 (stereo not drawn)
inactive: [7] 98 % of control | dose: 100.0 mg/kg/injection, schedule: Q01DX009 (ip), vehicle: saline with Tween-80 102 % of control | dose: 200.0 mg/kg/injection, schedule: Q01DX009 (ip), vehicle: saline with Tween-80 100 % of control

Cc1cccc(C)c1NC(=O)NNC(N)=S
inactive: [7] 97 % of control

Cc1c(C)c(C)c2c(c1C)CCC2O (stereo not drawn)
inactive: [8] 102 % of control and 100 % of control | [9] 105 % of control and 102 % of control | [7] 105 % of control and 100 % of control

O=c1oc(-c2ccccc2Br)ns1
inactive: [10] 107 % of control | dose: 200.0 mg/kg/injection, schedule: Q01DX009 (ip), vehicle: Klucel (hydroxypropylcellulose) (HPC) 97 % of control

CCSCCCC(=O)O
inactive: [1] 100 % of control | [2] 100 % of control | [3] 100 % of control

CC(=O)/C(=C(\c1ccccc1)N1CCOCC1)N1CCOCC1
inactive: [11] 99 % of control | [12] 100 % of control | [13] 107 % of control

CN(C)C1C(O)C2Oc3c(cc(O)c4c3C(=O)c3cc5c(c(O)c3C4=O)C(N)CC(C)(O)C5)C(C)(O2)C1O (stereo not drawn)
inactive: dose: 5.0 mg/kg/injection, schedule: Q01DX009 (ip), vehicle: other 118 % of control

CN1c2ccccc2C(C)(C)C2Nc3c(C#N)cnc(N)c3C21 (stereo not drawn)
inactive: [14] 96 % of control | [15] 105 % of control | [16] 109 % of control

CCOC(=O)C1=C(C(=O)c2ccc(C)cc2)C(c2c(Cl)cccc2Cl)C(C(=O)c2ccc(C)cc2)=C(C(=O)OCC)N1
inactive: dose: 30.0 mg/kg/injection, schedule: Q01DX005 (ip), vehicle: saline with Tween-80 104 % of control | [17] 102 % of control | [18] 104 % of control and 90 % of control | [19] 88 % of control

BrCOCCCCOCBr
inactive: dose: 60.0 mg/kg/injection, schedule: Q01DX005 (ip), vehicle: saline 114 % of control | dose: 120.0 mg/kg/injection, schedule: Q01DX005 (ip), vehicle: saline 101 % of control | dose: 240.0 mg/kg/injection, schedule: Q01DX005 (ip), vehicle: saline 108 % of control

OCC1=C(CO)CC2=C(CC=CC2)C1
inactive: [11] 100 % of control | [12] 99 % of control | [13] 97 % of control

COc1ccc(-c2csc(N)n2)cc1OC
inactive: dose: 100.0 mg/kg/injection, schedule: Q04DX003 (ip), vehicle: Klucel (hydroxypropylcellulose) (HPC) 98 % of control | dose: 200.0 mg/kg/injection, schedule: Q04DX003 (ip), vehicle: Klucel (hydroxypropylcellulose) (HPC) 101 % of control | dose: 400.0 mg/kg/injection, schedule: Q04DX003 (ip), vehicle: Klucel (hydroxypropylcellulose) (HPC) 102 % of control

CN(C)C1=C(Cl)C(=O)c2ccccc2C1=O
inactive: dose: 25.0 mg/kg/injection, schedule: Q01DX009 (ip), vehicle: Klucel (hydroxypropylcellulose) (HPC) 100 % of control | dose: 50.0 mg/kg/injection, schedule: Q01DX009 (ip), vehicle: Klucel (hydroxypropylcellulose) (HPC) 100 % of control | [10] 97 % of control

CC(C)S.[Cu+2]
inactive: dose: 6.25 mg/kg/injection, schedule: Q01DX009 (ip), vehicle: saline with Tween-80 114 % of control | [8] 97 % of control | [9] 109 % of control

CC1=C(CC/C(C)=C/CC[C@@]2(C)CC[C@H](C(C)C(=O)O)OO2)C(C)(C)CCC1 (stereo partly drawn)
inactive: dose: 4.38 mg/kg/injection, schedule: Q01DX005 (ip), vehicle: saline + Tween-80 + alcohol 97 % of control | dose: 8.75 mg/kg/injection, schedule: Q01DX005 (ip), vehicle: saline + Tween-80 + alcohol 102 % of control | dose: 17.5 mg/kg/injection, schedule: Q01DX005 (ip), vehicle: saline + Tween-80 + alcohol 94 % of control | dose: 35.0 mg/kg/injection, schedule: Q01DX005 (ip), vehicle: saline + Tween-80 + alcohol 94 % of control

CCCCNC(=O)C(CONC(=O)OC)NC(C)=O (stereo not drawn)
inactive: [11] 101 % of control | [12] 97 % of control | [13] 101 % of control

O=C1/C(=C/c2ccncc2)CCCc2ccccc21
inactive: dose: 60.0 mg/kg/injection, schedule: Q01DX005 (ip), vehicle: Klucel (hydroxypropylcellulose) (HPC) 102 % of control | dose: 120.0 mg/kg/injection, schedule: Q01DX005 (ip), vehicle: Klucel (hydroxypropylcellulose) (HPC) 104 % of control

CC(C)N(c1ccc(O)c2ccccc12)C(C)C
inactive: dose: 100.0 mg/kg/injection, schedule: Q01DX001 (ip), vehicle: saline with Tween-80 96 % of control | dose: 200.0 mg/kg/injection, schedule: Q01DX001 (ip), vehicle: saline with Tween-80 100 % of control | dose: 400.0 mg/kg/injection, schedule: Q01DX001 (ip), vehicle: saline with Tween-80 95 % of control

C[C@@H]1C[C@H]2[C@@H]3CCC4=CC(=O)C=C[C@]4(C)[C@@]3(F)[C@@H](O)C[C@]2(C)[C@@]1(O)C(=O)CO
inactive: dose: 25.0 mg/kg/injection, schedule: Q01DX009 (ip), vehicle: saline sonified 100 % of control | dose: 50.0 mg/kg/injection, schedule: Q01DX009 (ip), vehicle: saline sonified 90 % of control

Cc1cnc(NS(=O)(=O)c2ccc(N)cc2)nc1-c1ccccc1O
inactive: [17] 100 % of control | [18] 93 % of control | [19] 86 % of control

CC(C)c1c2ccccc2nn1-c1ccccc1
inactive: [15] 97 % of control | [16] 89 % of control | dose: 400.0 mg/kg/injection, schedule: Q04DX003 (ip), vehicle: saline with Tween-80 91 % of control

C/C(=N\NC(=S)Nc1cccc(F)c1)c1ccccn1
inactive: [4] 109 % of control | [5] 112 % of control | [6] 119 % of control

C/C(=N\N=C(\[Se])N1CCN(c2ccccn2)CC1)c1ccccn1
inactive: dose: 12.5 mg/kg/injection, schedule: Q04DX003 (ip), vehicle: saline with Tween-80 108 % of control | dose: 25.0 mg/kg/injection, schedule: Q04DX003 (ip), vehicle: saline with Tween-80 109 % of control and 116 % of control | [14] 113 % of control | [15] 115 % of control and 124 % of control | [16] 115 % of control
